Experimental data: patent publication US10407467B2, “Polymyxin derivatives and their use in combination therapy together with different antibiotics” (priority 2013, dated 2019)

How the values were obtained:
Experiment in all cases: MIC, sole activity (no second agent)
Format in all cases: cell-based
Conditions in all cases: Table 6A; no second agent; different supplier of Cation-adjusted MHB
Acinetobacter baumannii = tested on: Acinetobacter baumannii
Experimental: (§1) To evaluate the potency and spectrum of the compounds both alone and in combination with another agent, susceptibility testing was performed against up to four strains of each of the four Gram negative pathogens, Escherichia coli, Pseudomonas aeruginosa, Klebsiella pneumoniae and Acinetobacter baumannii.
(§2) The inoculum was prepared by making a direct suspension of isolated colonies (selected from an 18-24 hour Mueller-Hinton agar plate) adjusted to the 0.5 McFarland standard.
(§3) The assays were performed in duplicate.
(§4) In cases where the duplicate values varied by less than 2-fold, the lower of the two values is reported. If a variation of greater than 2-fold was observed, the assay was considered non-valid. Several of the compounds were subjected to multiple tests, and where this is the case, the MIC reflects the modal value obtained.
(§5) MICs were determined as described herein, except that a different supplier of Cation-adjusted MHB was used. […] Values are reported relative to Polymyxin B.

Pseudomonas aeruginosa = tested on: Pseudomonas aeruginosa
Experimental: as §1, §2, §3, §4, §5

Klebsiella pneumoniae = tested on: Klebsiella pneumoniae
Experimental: as §1, §2, §3, §4, §5

Escherichia coli = tested on: Escherichia coli
Experimental: as §1, §2, §3, §4, §5

## 2-(R)-(2-amino-2- cyclohexyl)ethanoyl polymyxin B nonapeptide [Example A38]
Acinetobacter baumannii
  MIC A. baumannii ATCC BAA-747: 1 micrograms/mL
  MIC A. baumannii NCTC 13424: 2 micrograms/mL
Pseudomonas aeruginosa
  MIC P. aeruginosa ATCC 27853: 0.5 micrograms/mL
  MIC P. aeruginosa CCUG 59347: 1 micrograms/mL
Klebsiella pneumoniae
  MIC K. pneumoniae ATCC 4352: 0.5 micrograms/mL
  MIC K. pneumoniae ATCC BAA-2146: 2 micrograms/mL
Escherichia coli
  MIC E. coli ATCC25922: 0.5 micrograms/mL
  MIC E. coli NCTC 13441: 2 micrograms/mL

## 2-(RS)-2-aminooctyl polymyxin B decapeptide [Example A5]
Acinetobacter baumannii
  MIC A. baumannii ATCC BAA-747: 1 micrograms/mL
  MIC A. baumannii NCTC 13424: 2 micrograms/mL
Pseudomonas aeruginosa
  MIC P. aeruginosa ATCC 27853: 0.25 micrograms/mL
  MIC P. aeruginosa CCUG 59347: 0.5 micrograms/mL
Klebsiella pneumoniae
  MIC K. pneumoniae ATCC 4352: 0.5 micrograms/mL
  MIC K. pneumoniae ATCC BAA-2146: 0.5 micrograms/mL
Escherichia coli
  MIC E. coli ATCC25922: 0.5 micrograms/mL

## 2-Aminomethylbenzoyl polymyxin B nonapeptide [Example A31]
Acinetobacter baumannii
  MIC A. baumannii ATCC BAA-747: >8 micrograms/mL
  MIC A. baumannii NCTC 13424: >8 micrograms/mL
Pseudomonas aeruginosa
  MIC P. aeruginosa ATCC 27853: 0.5 micrograms/mL
  MIC P. aeruginosa CCUG 59347: 2 micrograms/mL
Klebsiella pneumoniae
  MIC K. pneumoniae ATCC 4352: 2 micrograms/mL
  MIC K. pneumoniae ATCC BAA-2146: >8 micrograms/mL
Escherichia coli
  MIC E. coli ATCC25922: 8 micrograms/mL
  MIC E. coli NCTC 13441: 2 micrograms/mL

## 3-(R)-3-Amino-5- methylhexanoyl polymyxin B nonapeptide [Example A45]
Acinetobacter baumannii
  MIC A. baumannii ATCC BAA-747: >8 micrograms/mL
  MIC A. baumannii NCTC 13424: >8 micrograms/mL
Pseudomonas aeruginosa
  MIC P. aeruginosa ATCC 27853: 0.5 micrograms/mL
  MIC P. aeruginosa CCUG 59347: 1 micrograms/mL
Klebsiella pneumoniae
  MIC K. pneumoniae ATCC 4352: 1 micrograms/mL
Escherichia coli
  MIC E. coli ATCC25922: 2 micrograms/mL
  MIC E. coli NCTC 13441: 2 micrograms/mL

## 3-(RS)-3-amino octanoyl polymyxin B nonapeptide. Isomer 1 [Example A32]
Acinetobacter baumannii
  MIC A. baumannii ATCC BAA-747: 2 micrograms/mL
  MIC A. baumannii NCTC 13424: 2 micrograms/mL
Pseudomonas aeruginosa
  MIC P. aeruginosa ATCC 27853: 0.5 micrograms/mL
  MIC P. aeruginosa CCUG 59347: 1 micrograms/mL
Klebsiella pneumoniae
  MIC K. pneumoniae ATCC 4352: 0.5 micrograms/mL
  MIC K. pneumoniae ATCC BAA-2146: 0.25 micrograms/mL
Escherichia coli
  MIC E. coli ATCC25922: 0.5 micrograms/mL
  MIC E. coli NCTC 13441: 0.5 micrograms/mL

## 3-Methylpiperidine-3- carbonyl polymyxin B nonapeptide [Example A39]
Acinetobacter baumannii
  MIC A. baumannii ATCC BAA-747: >8 micrograms/mL
  MIC A. baumannii NCTC 13424: >8 micrograms/mL
Pseudomonas aeruginosa
  MIC P. aeruginosa ATCC 27853: 2 micrograms/mL
  MIC P. aeruginosa CCUG 59347: 4 micrograms/mL
Klebsiella pneumoniae
  MIC K. pneumoniae ATCC 4352: 8 micrograms/mL
  MIC K. pneumoniae ATCC BAA-2146: >8 micrograms/mL
Escherichia coli
  MIC E. coli ATCC25922: >8 micrograms/mL
  MIC E. coli NCTC 13441: 8 micrograms/mL

## 4-[3(R,S)-3-Amino-3- cyclohexanepropanamido] piperidine-4-carbonyl polymyxin B nonapeptide [Example A28]
Acinetobacter baumannii
  MIC A. baumannii ATCC BAA-747: >8 micrograms/mL
  MIC A. baumannii NCTC 13424: >8 micrograms/mL
Pseudomonas aeruginosa
  MIC P. aeruginosa ATCC 27853: 2 micrograms/mL
  MIC P. aeruginosa CCUG 59347: 4 micrograms/mL
Klebsiella pneumoniae
  MIC K. pneumoniae ATCC 4352: >8 micrograms/mL
  MIC K. pneumoniae ATCC BAA-2146: >8 micrograms/mL
Escherichia coli
  MIC E. coli ATCC25922: >8 micrograms/mL
  MIC E. coli NCTC 13441: >8 micrograms/mL
